In PubChem BioAssay (NCI):
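Values below derive from 48-hour exposures of cells grown in 96-well plates, with endpoints linearly interpolated between the two concentrations bracketing the appropriate inhibition level. Abbreviation: GI50, concentration required for 50% inhibition of growth. At the TGI there is no net growth.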

How the values were obtained:
Assay in all cases: NCI-60 cell line screen, 48 h
786-0 renal = system: 786-0 renal
A498 renal = system: A498 renal
A549 NSCLC = system: A549 NSCLC
ACHN renal = system: ACHN renal
BT-549 breast = system: BT-549 breast
CAKI-1 renal = system: CAKI-1 renal
CCRF-CEM leukemia = system: CCRF-CEM leukemia
COLO 205 colon = system: COLO 205 colon
DU-145 prostate = system: DU-145 prostate
EKVX NSCLC = system: EKVX NSCLC
HCC-2998 colon = system: HCC-2998 colon
HCT-116 colon = system: HCT-116 colon
HCT-15 colon = system: HCT-15 colon
HL-60(TB) leukemia = system: HL-60(TB) leukemia
HOP-62 NSCLC = system: HOP-62 NSCLC
HOP-92 NSCLC = system: HOP-92 NSCLC
HS 578T breast = system: HS 578T breast
HT29 colon = system: HT29 colon
IGROV1 ovarian = system: IGROV1 ovarian
K-562 leukemia = system: K-562 leukemia
LOX IMVI melanoma = system: LOX IMVI melanoma
M14 melanoma = system: M14 melanoma
MALME-3M melanoma = system: MALME-3M melanoma
MCF7 breast = system: MCF7 breast
MDA-MB-231 breast = system: MDA-MB-231 breast
MDA-MB-435 = system: MDA-MB-435
MOLT-4 leukemia = system: MOLT-4 leukemia
NCI-H226 lung = system: NCI-H226 lung
NCI-H23 lung = system: NCI-H23 lung
NCI-H460 lung = system: NCI-H460 lung
NCI-H522 lung = system: NCI-H522 lung
NCI/ADR-RES ovarian = system: NCI/ADR-RES ovarian
OVCAR-3 ovarian = system: OVCAR-3 ovarian
OVCAR-4 ovarian = system: OVCAR-4 ovarian
OVCAR-5 ovarian = system: OVCAR-5 ovarian
OVCAR-8 ovarian = system: OVCAR-8 ovarian
PC-3 prostate = system: PC-3 prostate
RPMI-8226 leukemia = system: RPMI-8226 leukemia
RXF 393 renal = system: RXF 393 renal
SF-268 CNS = system: SF-268 CNS
SF-295 CNS = system: SF-295 CNS
SF-539 CNS = system: SF-539 CNS
SK-MEL-2 melanoma = system: SK-MEL-2 melanoma
SK-MEL-28 melanoma = system: SK-MEL-28 melanoma
SK-MEL-5 melanoma = system: SK-MEL-5 melanoma
SK-OV-3 ovarian = system: SK-OV-3 ovarian
SN12C renal = system: SN12C renal
SNB-19 CNS = system: SNB-19 CNS
SNB-75 CNS = system: SNB-75 CNS
SR leukemia = system: SR leukemia
SW-620 colon = system: SW-620 colon
TK-10 renal = system: TK-10 renal
U251 CNS = system: U251 CNS
UACC-257 melanoma = system: UACC-257 melanoma
UACC-62 melanoma = system: UACC-62 melanoma
UO-31 renal = system: UO-31 renal

## C=C1C(=O)O[C@@H]2C[C@@H](C)/C=C\C(=O)[C@](C)(OC(C)=O)C[C@H](OC(=O)/C(C)=C\C)[C@@H]12
786-0 renal
  GI50: 2.66 µM
  TGI: 5.93 µM
A498 renal
  GI50: 6.15 µM
  TGI: 13.5 µM
A549 NSCLC
  GI50: 7.78 µM
  TGI: 24.2 µM
ACHN renal
  GI50: 0.466 µM
  TGI: 0.885 µM
BT-549 breast
  GI50: 3.02 µM
  TGI: 6.31 µM
CAKI-1 renal
  GI50: 1.09 µM
  TGI: 3.97 µM
CCRF-CEM leukemia
  GI50: 0.834 µM
  TGI: 4.41 µM
COLO 205 colon
  GI50: 0.75 µM
  TGI: 2.6 µM
DU-145 prostate
  GI50: 2.52 µM
  TGI: 6.12 µM
EKVX NSCLC
  GI50: 2.63 µM
  TGI: 6.27 µM
HCC-2998 colon
  GI50: 4.14 µM
  TGI: 8.31 µM
HCT-116 colon
  GI50: 0.835 µM
  TGI: 3.13 µM
HCT-15 colon
  GI50: 0.675 µM
  TGI: 2.13 µM
HL-60(TB) leukemia
  GI50: 1 µM
  TGI: 5.75 µM
HOP-62 NSCLC
  GI50: 7.2 µM
  TGI: 20.7 µM
HOP-92 NSCLC
  GI50: 3.74 µM
  TGI: 8.05 µM
HS 578T breast
  GI50: 12.3 µM
  TGI: > 25 µM
HT29 colon
  GI50: 1.06 µM
  TGI: 4 µM
IGROV1 ovarian
  GI50: 4.31 µM
  TGI: 9.91 µM
K-562 leukemia
  GI50: 0.978 µM
  TGI: > 25 µM
LOX IMVI melanoma
  GI50: 2.88 µM
  TGI: 6.18 µM
M14 melanoma
  GI50: 3.69 µM
  TGI: 11 µM
MALME-3M melanoma
  GI50: 1.1 µM
  TGI: 5.11 µM
MCF7 breast
  GI50: 0.971 µM
  TGI: 5.6 µM
MDA-MB-231 breast
  GI50: 1.7 µM
  TGI: 5.89 µM
MDA-MB-435
  GI50: 3.91 µM
  TGI: 12.4 µM
MOLT-4 leukemia
  GI50: 0.896 µM
  TGI: 4.25 µM
NCI-H226 lung
  GI50: 3.48 µM
  TGI: 6.83 µM
NCI-H23 lung
  GI50: 1.21 µM
  TGI: 5.95 µM
NCI-H460 lung
  GI50: 7.02 µM
  TGI: 23.6 µM
NCI-H522 lung
  GI50: 0.508 µM
  TGI: 1.22 µM
NCI/ADR-RES ovarian
  GI50: 2.8 µM
  TGI: > 25 µM
OVCAR-3 ovarian
  GI50: 0.94 µM
  TGI: 3.2 µM
OVCAR-4 ovarian
  GI50: 1.58 µM
  TGI: 8.48 µM
OVCAR-5 ovarian
  GI50: 2.53 µM
  TGI: 5.97 µM
OVCAR-8 ovarian
  GI50: 1.11 µM
  TGI: 23.9 µM
PC-3 prostate
  GI50: 4.77 µM
  TGI: 13.7 µM
RPMI-8226 leukemia
  GI50: 0.893 µM
  TGI: 2.94 µM
RXF 393 renal
  GI50: 0.683 µM
  TGI: 1.87 µM
SF-268 CNS
  GI50: 5.38 µM
  TGI: 20.8 µM
SF-295 CNS
  GI50: 7.73 µM
  TGI: 20.2 µM
SF-539 CNS
  GI50: 3.19 µM
  TGI: 6.52 µM
SK-MEL-2 melanoma
  GI50: 4.45 µM
  TGI: 12.1 µM
SK-MEL-28 melanoma
  GI50: 1.81 µM
  TGI: 5.49 µM
SK-MEL-5 melanoma
  GI50: 3.7 µM
  TGI: 7.25 µM
SK-OV-3 ovarian
  GI50: 11.1 µM
  TGI: > 25 µM
SN12C renal
  GI50: 5.73 µM
  TGI: > 25 µM
SNB-19 CNS
  GI50: 11.5 µM
  TGI: > 25 µM
SNB-75 CNS
  GI50: 4.07 µM
  TGI: 17.6 µM
SR leukemia
  GI50: 0.845 µM
  TGI: 5.2 µM
SW-620 colon
  GI50: 1.01 µM
  TGI: 3.54 µM
TK-10 renal
  GI50: 0.996 µM
  TGI: 3.32 µM
U251 CNS
  GI50: 3.7 µM
  TGI: 8.64 µM
UACC-257 melanoma
  GI50: 2.66 µM
  TGI: 6.77 µM
UACC-62 melanoma
  GI50: 1.55 µM
  TGI: 5.93 µM
UO-31 renal
  GI50: 2.91 µM
  TGI: 6 µM
